From US12209143B2, “Versatile peptide and protein macrocyclization and multimerization with diels-alder cycloadditions” (The University of Chicago, priority 2019, dated 2025)
Where two headings read alike, the source gives them in different places. Blank lines part the entries; values can stand above or below the molecule they belong to.

Assays:
trypsin = target: T1, trypsin (Sus scrofa, UniProt P00761); assay: In vitro trypsin resistance assay; assay type: in vitro ADME; conditions: 10 μg/mL trypsin, 37° C.
T1 construct: purchased Thermo Pierce
T1 sequence (P00761 9-231): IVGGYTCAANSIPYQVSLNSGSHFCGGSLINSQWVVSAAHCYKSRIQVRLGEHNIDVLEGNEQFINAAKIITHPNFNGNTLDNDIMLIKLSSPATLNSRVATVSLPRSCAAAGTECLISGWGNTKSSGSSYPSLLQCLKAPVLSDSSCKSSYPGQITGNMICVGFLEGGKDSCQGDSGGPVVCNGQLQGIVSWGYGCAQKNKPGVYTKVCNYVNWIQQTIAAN
Protocol: (§1) DAC protease stability assays. DAC peptide protease degradation kinetics were determined with Thermo Pierce™ MS-Grade Trypsin or Chymotrypsin Protease in PBS or TBS with 5 mM DTT and 2 mM CaCl2. Protease (1 eq) was added to buffer for a final assay concentration of 10 μg/mL trypsin or 0.5 μg/mL chymotrypsin. Each respective reaction mixture was then added to either 1 wt and 1a (2000 eq) or 4 wt and 4a (10,000 eq). Samples were then incubated at 37° C., 1,000 rpm. 5 min, 10 min, 30 min, 2 hr, and 4 hr time points were quenched in an equal volume of 2% TFA/H2O on ice. After 5 min, samples were centrifuged for 2 min at 17,000 rcf to precipitate quenched trypsin. Supernatant solutions were then analyzed and intact peptide quantified by LC-MS or Q-TOF.

ERα = target: T2, ERα (Homo sapiens, UniProt P03372); assay: Competitive fluorescence polarization (FP) binding assay of DAC-SRC2 peptides
T2 construct: Wildtype and Y537S 6×His-TEV-ERα (residues 300-550) in pET21a(+) was expressed in E. coli BL21(DE3); 6×His-TEV (N, cleaved yes); made in house; host or cells: E. coli BL21(DE3)
T2 sequence (P03372 300-550): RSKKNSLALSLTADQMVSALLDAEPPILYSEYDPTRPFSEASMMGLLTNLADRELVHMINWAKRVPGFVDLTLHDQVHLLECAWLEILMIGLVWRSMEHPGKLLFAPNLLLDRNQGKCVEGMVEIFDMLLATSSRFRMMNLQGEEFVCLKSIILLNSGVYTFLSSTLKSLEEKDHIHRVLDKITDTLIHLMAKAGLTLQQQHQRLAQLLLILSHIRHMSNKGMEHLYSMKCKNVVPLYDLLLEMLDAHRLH
Protocol: Competitive fluorescence polarization (FP) assay. […] Plates were incubated at 4° C. for 1 hr, imaged using standard FP assay settings at 30° C., and data analyzed as previously described.

chymotrypsin = target: T3, chymotrypsin (Bos taurus, UniProt P00766); assay: In vitro chymotrypsin resistance assay; assay type: in vitro ADME; conditions: 0.5 μg/mL chymotrypsin, 37° C.
T3 construct: purchased Thermo Pierce
Protocol: as §1

degradation by trypsin (trypsin): extended half-life
Molecule: CC(=O)N[C@H]1CSCC2C=CC(C)C3C(=O)N(CC(=O)NCCCC[C@@H](C(N)=O)NC(=O)[C@H](CC(=O)O)NC(=O)CNC(=O)[C@H](CCCNC(=N)N)NC1=O)C(=O)C23 (some centres unmarked) [1a, CHexRGDKMal]

Ki (ERα; calculated from competitive FP assay, ERα, value (± s.e.m.)): 210 nM | IC50 (ERα; competing a fluorescein-linked SRC2 peptide off of ERα, read-out: IC50 (approximate)): ~500 nM | IC50 (ERα; competitive FP, wildtype ERα, fluorescein-labeled SRC peptide tracer, value (± s.e.m.), read-out: IC50): 480 nM
Molecule: CC[C@H](C)[C@H](NC(=O)[C@H](CCCCN)NC(=O)[C@H](Cc1c[nH]cn1)NC(C)=O)C(=O)N[C@@H](CC(C)C)C(=O)N[C@@H](Cc1c[nH]cn1)C(=O)N[C@H]1CCCCNC(=O)CN2C(=O)C3C4C=CC(C[C@@H](C(=O)N[C@@H](CO)C(N)=O)NC(=O)[C@H](CCC(N)=O)NC(=O)[C@H](CC(C)C)NC(=O)[C@H](CC(C)C)NC1=O)(O4)C3C2=O (some centres unmarked) [7a]

degradation by chymotrypsin (chymotrypsin): degraded more rapidly than 4a
Molecule: Ac-CAVPAVYK-NH2 [4 wt]
